Data: patent US20240398738A1, “MANIPULATION OF THE RETINOIC ACID SIGNALING PATHWAY” (THE REGENTS OF THE UNIVERSITY OF CALIFORNIA, priority 2017, published 2024)
“Also recorded” adds a separate entry of the source.

Assays:
[1] = tested on: retinal neurons (photoreceptors); assay: TUNEL assay after intravitreal injection; format: in vivo, mouse; conditions: WT, 5-6 days after intravitreal injection, ATRA 100 nM
Text: Immunolabeling and TUNEL assay. S334ter rat retinas infected with the RARE double reporter were dissected, fixed and frozen, as previously described (54). The tissue was cut in 14 μm thick cross-sections using a Leica cryostat. Immunocytochemical solution (ICC) was composed of standard 1×PBS (Gibco), 2.5% BSA (Sigma) and 0.1% Triton (Sigma). The tissue was blocked using ICC solution supplemented with unconjugated rabbit anti-mouse secondary antibody (Life Technologies) at RT for 1 hr. Slides were incubated with primary mouse anti-GFP antibody (#JL8, Clontech), with no RFP cross-reactivity, at 4° C. ON. An Alexa Fluor-488 conjugated goat anti-mouse secondary antibody (Life Technologies) was used at RT for 1 hr in the dark. The same procedure was carried out for detection of RARβ in mouse retinas following injection of vehicle or ATRA. Slides were incubated with a primary rabbit anti-RARβ antibody (ab53161, Abcam) and detected using an Alexa Fluor-488 conjugated goat anti-rabbit secondary antibody (Life Technologies). TUNEL assay (In Situ Cell Death Detection Kit, Roche) was carried out per manufacturer's instructions. Retinas were collected 5-6 days following injection with vehicle, ATRA, or ATRA and Liarozole.
TUNEL assay. TUNEL assay (In Situ Cell Death Detection Kit, Roche) was carried out per manufacturer's instructions. […]

[2] = tested on: RGCs in rd1 retina; assay: MEA recording of RGC spontaneous activity in darkness, rd1 retina; format: in vivo, mouse
Method: Intravitreal Injections. Before injection, mice were anesthetized with isoflurane (2%) and their pupils were dilated with tropicamide (1%) and phenylephrine (2.5%). Proparacaine (0.5%) was used as a topical analgesic. Genteal was applied under a glass coverslip to keep the cornea lubricated. An incision was made through the sclera below the ora serrata with a 30G needle and ˜1 μl of solution was injected into the vitreous with a blunt-ended 33G Hamilton syringe. After injection, the antibiotic tobramycin (0.3%) was applied to the eye. Final drug concentrations after intravitreal injection were: all-trans retinoic acid (ATRA, 100 nM), liarozole (100 μM), diethylaminobenzaldehyde (DEAB, 20 μM), citral (50 μM), BMS-493 (500 nM), and retinaldehyde (1 μM). The above values correspond to the final concentration in the eye after injecting 1 μl of drug accounting for a 5-fold dilution. An injection of PBS including 1% DMSO was used as vehicle control.
Multi Electrode Array Recordings. For extracellular recordings, a flat-mounted retina was placed ganglion cell layer down onto a 60-electrode Multi-Electrode Array (MEA 1060-2-BC, Multi-Channel Systems). […] Extracellular spikes were high-pass filtered at 200 Hz and digitized at 20 kHz and were counted when exceeding 4 SD from the mean background voltage signal. Typically, each electrode recorded spikes from one to three individual RGCs. […]

Compound | cell death / toxicity (TUNEL) [1] | spontaneous firing of rd1 RGCs (mean Firing Rate) ([2]; rd1, 3-7 days after a single intravitreal injection of BMS-493, control 5.13±0.74 Hz) [Hz] | spontaneous firing rates versus controls, in words ([2]; rd1 retina, BMS-493 0.5 μM 3-7 days before, or AAV2-RARDN injected at P30, recorded at P90)
CC1=C(/C=C/C(C)=C/C=C/C(C)=C/C(=O)O)C(C)(C)CCC1 [ATRA, all-trans retinoic acid] | does not cause retinal neuron degeneration; also recorded: non-toxic; also recorded: no cell death | – | –
CC1(C)CC=C(C#Cc2ccccc2)c2cc(/C=C/c3ccc(C(=O)O)cc3)ccc21 [BMS-493] | – | 2.67±0.33 | significantly lower
